# According to patent US10001483B2, “Methods for the treatment of Kaposi's sarcoma or KSHV-induced lymphoma using immunomodulatory compounds, and uses of biomarkers” (Celgene Corporation, priority 2015, dated 2018):
# Entries after “also recorded” stand apart in the source; their conditions may differ. Marks after values point to notes of the source that are not given here.
# Columns and labels:
# lymphocyte subsets = assay: Immunologic correlatives: lymphocyte numbers and T cell subsets/activation by immunophenotyping of PBMC; type: in vivo, human; details: for CD4 and CD8 counts: week 4 and week 8 of therapy
# Experimental: (§1) Aspirin at 81 mg daily was administered as thromboprophylaxis. Assessments were performed every 4 weeks for lymphocyte numbers, Kaposi sarcoma associated herpesvirus (KSHV/HHV8) viral load (VL) and HIV VL and at 8 weeks for T cell subsets and activation by immunophenotyping of peripheral blood mononuclear cells (PBMC). KSHV VL in PBMC and HIV VL in plasma were assayed by quantitative PCR; an ultrasensitive single copy assay was used for HIV VL. Changes from baseline were evaluated using the Wilcoxon signed rank test with P<0.005 considered significant given multiple comparisons. Differences in changes between the HIV infected and uninfected groups were evaluated using the Wilcoxon rank sum test. Median time of the patients on therapy 7 cycles (range 2-12).
# (§2) Laboratory Assays: Lymphocyte subsets were assessed by fluorescent-activated cell sorting using the BlueOcean platform (Beckman Coulter, Carlsbad, Calif.). Plasma HIV-1 […] was evaluated using an ultrasensitive assay whose sensitivity was 1 viral copy per plasma volume. Briefly, a triplex PCR was used using a modification of a previously reported assay with three primers: one spanning the start codon of gag, one in the gag coding region, and one internal control. Samples were tested from 6 mL plasma aliquots, with 12 replicants per sample. KSHV VL in peripheral blood mononuclear cells (PBMC) was assessed by quantitative real-time PCR.
# (§3) Changes in immunologic and virologic parameters were evaluated by a Wilcoxon signed rank test. Exact Wilcoxon rank sum tests were used to compare pharmacokinetic parameters at each time point and differences from baseline. All p-values are two-tailed and reported without adjustment for multiple comparisons. HRQL was analyzed using a using a mixed model repeated measures analysis for FAHI and the marginal homogeneity test for KS-specific questions
# [1] = Safety and tolerability of pomalidomide in KS patients; type: in vivo, human
# Experimental: as §1
# Subsequent cycles commenced on day 29. In certain cases cycles were commenced when ANC was ≥1000 cells/mm3, hemoglobin≥10 g/dL, platelets≥50,000 cells/mm3 and otherwise held until these thresholds were met. […] HIV-infected patients continued baseline ART without adjustment. Prophylaxis for opportunistic infections including Pneumocystis jiroveci was administered following current guidelines.
# MHC-1 = assay: K3/K5 mediated MHC-1 down-regulation in K3 or K5 transfected KSHV-negative BJAB cells; type: cell-based
# Experimental: FIGS. 9A-9E. […] 24 hours after electroporation, FACS analysis was done using half of the cells. […] The remaining cells were subjected to lysis, protein extraction, and western blot. Blots were probed with antibodies to the indicated proteins.
# p21 = assay: Western blot of p21 in PEL cell lines; type: cell-based; details: 10 ii M for 72 hours; FIGS. 6A-6B
# Experimental: (§4) Cell Culture: The PEL lines JSC-1 (John Hopkins University, Baltimore, Md.), dually infected with Epstein-Barr virus (EBV) and HHV-8, and BC-3 (ATCC, Rockville, Md.) and BCBL-1(National Institute of Health AIDS Research and Reagent Program, Rockville, Md.), harboring KSHV only, and CA-46, an uninfected cancerous B-cell line, were grown in RPMI 1640 medium (Invitrogen, Carlsbad, Calif.) supplemented with 15% fetal-bovine serum (FBS) (Thermo Scientific, Rockford, Ill.) and Pen/Strep glutamine at 37° C. with 5% CO2.
# Western Blotting: At the end of an incubation period, cells were lysed and nuclear/cytoplasmic extracts were prepared using the NE-PER nuclear extraction kit (Pierce). Samples were subjected to SDS-PAGE (4 to 12% NuPAGE Tris-Bis) (Invitrogen) and transferred to nitrocellulose. The membrane was blocked with 5% w/v nonfat dry milk in 1×TBST (10 mM Tris-Hcl, […], 150 mM NaCl, and 0.05% Tween 20) overnight at 4° C. Blots were incubated with indicated antibodies such as anti-IRF-7 (Santa Cruz), anti-IRF-4 (Cell Signaling), anti-p21 (Cell Signaling), anti-NF-κB p65 (Cell Signaling), anti-NF-κB phospho-p65 (Cell Signaling), IFN-γRa (Cell Signaling), or anti-CRBN (Sigma-Aldrich), and subjected to the appropriate secondary antibody conjugated to alkaline phosphatase (Promega). Bands were visualized with Western Blue stabilized substrate (Promega). […]
# [2] = test system: Kaposi sarcoma associated herpesvirus (KSHV/HHV8); assay: KSHV viral load in PBMC by quantitative real-time PCR; type: in vivo
# Experimental: as §1, §2, §3
# [3] = test system: KSHV-infected PEL lines (BC-3, BCBL-1, JSC-1, BC-1); assay: Cell viability (Trypan Blue or CellTiter-Glo) in KSHV-infected PEL cell lines; type: cell-based; details: among thalidomide, lenalidomide, pomalidomide, FIGS. 2A-2D
# Experimental: In addition, the effect of the immunomodulatory drugs on KSHV down-regulation of MHC-1 during lytic activation was investigated by FACS analysis after pretreating the cells with Immunomodulatory drugs prior to lytic activation with butyrate.
# Cell Viability: Cells were plated in triplicate at a density of 30,000-60,000 cells per well in 96-well plates. Cell lines were kept separate on different plates. Cell viability after indicated treatments were assayed by Trypan Blue or by adding the CellTiter-Glo reagent to measure the total ATP in cells cultured with serum-supplemented medium. For the latter, the corresponding luminescence values, correlated to the number of cells, were measured using a luminometer. The values for percentage of living cells were normalized to the control.
# as §4
# [4] = patients; approved dose 4 mg; cited from earlier work
# [5] = 5 mg per day for 21 days of 28 day cycles
smiles,measurement,setting,value
"Nc1cccc2c1C(=O)N(C1CCC(=O)NC1=O)C2=O (stereo not drawn) [pomalidomide, 4-amino-2-(2,6-dioxopiperidin-3-yl)isoindoline-1,3-dione]",CD19 B-cells,lymphocyte subsets; during therapy,decline; also recorded: reversible decrease
same,NK cells,lymphocyte subsets; during therapy,no significant change
same,Ki67 or PD-1 expression in CD4 or CD8 cells,lymphocyte subsets; in vivo,no significant changes
same,difference between HIV infected and uninfected patient groups in observed effects (cell number and phenotype),lymphocyte subsets; in vivo,no significant difference
same,"CD3 (cells/μL) Change to End Therapy (Med, range)",lymphocyte subsets; median change from baseline,+11 cells/μL
same,"CD3 (cells/μL) Change to Week 8 (Med, range)",lymphocyte subsets; median change from baseline,+190 cells/μL
same,"CD4 (cells/μL) Change to End Therapy (Med, range)",lymphocyte subsets; median change from baseline,−46 cells/μL
same,"CD4 (cells/μL) Change to Week 8 (Med, range)",lymphocyte subsets; median change from baseline,+40 cells/μL
same,"CD8 (cells/μL) Change to End Therapy (Med, range)",lymphocyte subsets; median change from baseline,104 cells/μL
same,"CD8 (cells/μL) Change to Week 8 (Med, range)",lymphocyte subsets; median change from baseline,+142 cells/μL
same,"CD19 (cells/μL) Change to End Therapy (Med, range)",lymphocyte subsets; median change from baseline,−87 cells/μL
same,"CD19 (cells/μL) Change to Week 8 (Med, range)",lymphocyte subsets; median change from baseline,−70 cells/μL
same,"NK (cells/μL) Change to End Therapy (Med, range)",lymphocyte subsets; median change from baseline,10 cells/μL
same,"NK (cells/μL) Change to Week 8 (Med, range)",lymphocyte subsets; median change from baseline,−6 cells/μL
same,"CD19 (cells/μL) Change to Week 4 (Med, range)",lymphocyte subsets; median change from baseline 141,−35 cells/μL
same,"NK (cells/μL) Change to Week 4 (Med, range)",lymphocyte subsets; median change from baseline 178,+23 cells/μL
same,"CD4 (cells/μL) Change to Week 4 (Med, range)",lymphocyte subsets; median change from baseline 440,+108 cells/μL
same,"CD8 (cells/μL) Change to Week 4 (Med, range)",lymphocyte subsets; median change from baseline 500,+101 cells/μL
same,"CD3 (cells/μL) Change to Week 4 (Med, range)",lymphocyte subsets; median change from baseline 1184,+275 cells/μL
same,"CD4 Subsets 38+ DR+: Absolute Change in % at Week 8 (med, range)","lymphocyte subsets; median, baseline 2.5 %",+2%
same,"CD4 Subsets RO− 27− (E): Absolute Change in % at Week 8 (med, range)","lymphocyte subsets; median, baseline 3.3 %",−1.5%
same,"CD4 Subsets 57+: Absolute Change in % at Week 8 (med, range)","lymphocyte subsets; median, baseline 6.3 %",−1.34%
same,"CD8 Subsets 38+ DR+: Absolute Change in % at Week 8 (med, range)","lymphocyte subsets; median, baseline 8.0 %",+8.5%
same,"CD4 Subsets HLA DR+: Absolute Change in % at Week 8 (med, range)","lymphocyte subsets; median, baseline 8.9 %",+8.3%
same,"CD4 Subsets RO+ 27− (EM): Absolute Change in % at Week 8 (med, range)","lymphocyte subsets; median, baseline 16.7 %",+1.7%
same,"CD8 Subsets RO+ 27+ (CM): Absolute Change in % at Week 8 (med, range)","lymphocyte subsets; median, baseline 17.1 %",+8.1%
same,"CD8 Subsets RO+ 27− (EM): Absolute Change in % at Week 8 (med, range)","lymphocyte subsets; median, baseline 18.4 %",+1.0%
same,"CD8 Subsets HLA DR+: Absolute Change in % at Week 8 (med, range)","lymphocyte subsets; median, baseline 19.6 %",+11.6%
same,"CD8 Subsets RO− 27+ (N): Absolute Change in % at Week 8 (med, range)","lymphocyte subsets; median, baseline 21.0 %",−5.1%
same,"CD8 Subsets 57+: Absolute Change in % at Week 8 (med, range)","lymphocyte subsets; median, baseline 30.8 %",−11.0%
same,"CD8 Subsets RO− 27− (E): Absolute Change in % at Week 8 (med, range)","lymphocyte subsets; median, baseline 31.8 %",−6.1%
same,"CD4 Subsets RO− 27+ (N): Absolute Change in % at Week 8 (med, range)","lymphocyte subsets; median, baseline 32.6 %",−6.6%
same,"CD8 Subsets 38+: Absolute Change in % at Week 8 (med, range)","lymphocyte subsets; median, baseline 33.4 %",+19.9%
same,"CD4 Subsets 38+: Absolute Change in % at Week 8 (med, range)","lymphocyte subsets; median, baseline 34.5 %",+4.3%
same,"CD4 Subsets RO+ 27+ (CM): Absolute Change in % at Week 8 (med, range)","lymphocyte subsets; median, baseline 41.9 %",+6.4%
same,CD4 and CD8 counts,lymphocyte subsets,Significant increases
same,CD4 and CD8 counts,lymphocyte subsets; listed as Pomalidomide,significant increases
same,"activation (CD38+, HLADR+ and DR+/38+) of CD4 and CD8 T-cells",lymphocyte subsets; week 8,significant increases
same,senescence (CD57+) of CD4 and CD8 T-cells,lymphocyte subsets; week 8,decreases
same,"adverse events, severity",[1]; [5],"generally mild, self limited, or reversible following therapy"
same,dose limiting events,[1]; [5],No dose limiting events
same,tolerability,[1]; both cohorts,well tolerated
same,cessation of therapy for adverse effect,[1]; exacerbation of pre-existing anxiety,One subject ceased therapy for adverse effect
same,common adverse events,"[1]; generally mild and self-limited, or resolved following cessation of therapy","neutropenia, constipation, anemia not requiring transfusion, fatigue, and rash"
same,"unplanned hospitalizations, febrile neutropenia, thromboembolic events",[1]; with aspirin 81 mg daily thromboprophylaxis,"No unplanned hospitalizations, no febrile neutropenia, and no thromboembolic events"
same,down-regulation of MHC-1 by plasmids encoding K3 or K5,MHC-1; 10 μM for 48 hours before electroporation,prevented
same,"prevention of MHC I knockdown, FACS analysis with K5","MHC-1; 10 μM for 48 hours, GFP-positive cells",not consistently observed
same,"MHC I knockdown, western blots","MHC-1; 10 μM for 48 hours, K3 or K5 plasmids",preventing MHC I knockdown
same,p21 levels,p21,most effective in up-regulating p21
same,"KSHV VL (copies/PBMC) Change to End Therapy (Med, range)",[2]; median change from baseline,0 copies/PBMC
same,"KSHV VL (copies/PBMC) Change to Week 8 (Med, range)",[2]; median change from baseline,0 copies/PBMC
same,"KSHV VL (copies/PBMC) Change to Week 4 (Med, range)",[2]; median change from baseline 0,0^† copies/PBMC
same,subjects whose KSHV VL became detectable from undetectable,"[2]; week 4, 8 subjects",35%
same,subjects showing an increase in KSHV VL in PBMCs,"[2]; week 4, 10 subjects",45%
same,KSHV VL,"[2]; week 4, not sustained at week 8",transient increase; also recorded: significant increase
same,cell viability / PEL proliferation,[3],most effective one at killing KSHV infected cells
same,Plasma Serum Concentration,[4],300 nM
